Patent US20260226031A1, “NOVEL COMPOUNDS” (NRG THERAPEUTICS LTD., priority 2023, published 2026)

Experiments:
mPTP [1] = experiment: mPTP activity (Ca2+ retention) assay in isolated rat brain mitochondria; assay type: biochemical; conditions: isolated rat brain mitochondria; Fluo5N fluorescence at 10 min after Ca2+ (75 μM) bolus
Description: MPTP activity was measured in brain mitochondria freshly isolated from female Sprague Dawley (250 to 300 gram) rats. Anaesthetised rats were perfused in-situ with ~40 ml cold Dulbecco's Phosphate Buffered Saline (DPBS), then brains dissected and transferred into 30 ml Isolation Buffer (225 mM mannitol, 75 mM sucrose, 1 mM EGTA, adjusted to pH 7.4 with 1M NaOH). The brain was minced using tweezers and a scalpel into ~5 mm pieces then transferred into a 50 ml Potterton Dounce homogenization tube on ice containing 10 ml ice-cold isolation buffer (as above with addition of Complete Protease inhibitor; 1 tablet per 50 ml buffer). Homogenisation was carried out using a Teflon® pestle at 1800 rpm. The slurry was centrifuged at 2000 g for 10 min at 4° C., then the supernatant centrifuged at 12,000 g for 9 min. The pellet was resuspended with a dounce homogeniser in isolation buffer as above but with the addition of 0.02% digitonin, centrifuged at 12,000 g for 11 min and finally resuspended in 5 ml modified isolation buffer (as above but with EGTA reduced to 0.1 mM).
Test compounds were prepared in 384 well polypropylene assay plates as described above for the liver mitochondria assay. A stock mitochondria/Fluo5N assay solution was prepared in 5.6 ml assay buffer (120 mM mannitol, 40 mM MOPS, 5 mM KH2PO4, 60 mM KCl, 10 mM pyruvate, 2 mM malate, 2 mM MgCl2, 20 μM ADP, 1.26 μM oligomycin A, adjusted to pH 7.4) supplemented with Fluo5N pentapotassium salt (2 μM) and 1 ml mitochondria suspension, then transferred (15 μl) into the assay plate containing test compounds and incubated for 10 min at RT. Assay plates were then transferred to a FLIPR Tetra plate reader (Molecular Devices). Dye fluorescence was then measured every 3 sec for a total of 10 min.

mPTP [2] = experiment: mPTP activity (Ca2+ retention) assay in isolated rat liver mitochondria; assay type: biochemical; conditions: isolated rat liver mitochondria; Fluo5N fluorescence at 10 min after CaCl2 (75 μM) bolus; DMSO 0%, 5 μM cyclosporin A 100% inhibition
Description: Pharmacological inhibition or modulation of the mPTP can be measured in well characterised ‘Ca^2+ retention’ assays performed in isolated mitochondria. In vitro, isolated mitochondria rapidly sequester exogenous Ca^2+ until the intramitochondrial Ca^2+ concentration reaches the threshold for mPTP activation. Once the pore is activated, mitochondrial integrity is compromised and the stored Ca^2+ is released. The distribution of Ca^2+ between extra- and intra-mitochondrial compartments can be measured in real time with the use of membrane-impermeant Ca^2+ sensitive fluorescent dyes. Depending on the configuration of the assay, inhibition or modulation of the mPTP either delays the opening of the pore or increases the concentration of Ca^2+ required to induce mPTP opening.
MPTP activity was measured in mitochondria freshly isolated from female Sprague Dawley (250 to 300 gram) rat livers using the following method. Cervical dislocation was performed on the rat. The liver was then perfused in-situ with ~40 ml cold Dulbecco's Phosphate Buffered Saline (DPBS) prior to dissection and transferred into 30 ml Isolation Buffer (250 mM Sucrose, 10 mM KCl, 1 mM EGTA, 1 mM EDTA, 25 mM HEPES, adjusted to pH 7.5 with 1M NaOH). Each lobe of the liver was then removed from the buffer, minced using tweezers and a scalpel into ~5 mm pieces then transferred into a 50 ml Potterton dounce homogenization tube on ice containing 30 ml ice-cold centrifugation buffer (300 mM Trehalose, 25 mM HEPES, 1 mM EGTA, 1 mM EDTA, 10 mM KCl, adjusted to pH 7.5 with 1M NaOH and supplemented with 0.1% bovine serum albumin (BSA) and complete protease inhibitor cocktail (one tablet of inhibitor per 50 mls of buffer). Homogenisation was carried out using a Teflon® pestle at 1800 rpm. The slurry was centrifuged at 800 g for 10 min at 4° C., then the supernatant centrifuged at 10,000 g for 10 min. The pellet was washed once with FLIPR assay buffer (75 mM Mannitol, 25 mM Sucrose, 5 mM Potassium Phosphate Monobasic, 20 mM Tris base, 100 mM KCl, 0.1% BSA adjusted to pH 7.4 with 5M HCl) centrifuged again, then resuspended in FLIPR assay buffer to a concentration of 8.8 mg/ml protein.
Tested compounds (10 mM stock in DMSO) were serially diluted in DMSO in half log steps to generate 10 test concentrations (final concentrations in assay 30 μM to 1 nM). An intermediate dilution of 5 μl DMSO samples into 247 μl FLIPR assay buffer was carried out prior to transfer of 5 μl into duplicate wells of a 384 well polypropylene assay plate. Control wells were 0.5% (v/v) DMSO and 5 μM cyclosporin A.
A stock mitochondria/Fluo5N assay solution was prepared in 5.6 ml FLIPR assay buffer (at RT) supplemented with succinate disodium salt (10 mM), rotenone (1 μM), Fluo5N pentapotassium salt (2 μM) and 1 ml mitochondria suspension, then transferred (15 μl) into the assay plate containing test compounds and incubated for 10 min at RT. Assay plates were processed for fluorescence detection on either a FLIPR Tetra (Molecular Devices) or CLARIOstar (BMG) plate reader. For kinetic fluorescence detection on the FLIPR, dye fluorescence was measured every 3 sec for a total of 10 min. After 12 sec, a 2.5 μl bolus of CaCl2 (75 μM) was added from a source plate containing 675 μM CaCl2 in FLIPR assay buffer. Alternatively, the 2.5 μl addition of CaCl2 was performed using a Viaflow 384, plates were incubated at RT for 10 min, and dye fluorescence measured after 10 min on the CLARIOstar plate reader. pIC50 values for tested compounds were calculated using the fluorescence value collected at the 10 min timepoint on either plate reader, with % inhibition calculated using the DMSO control and cyclosporin A values as 0 and 100% respectively.

Structure (SMILES)	mPTP Rat brain pIC50 (mPTP [1])	mPTP Rat liver pIC50* (mPTP [2])
O=C(c1cncc(=O)[nH]1)N1CC(c2ccccc2)C2(CCCC2)C1 (single isomer, unassigned) [Example 17a, 6-[4-Phenyl-2-azaspiro[4.4]nonane-2-carbonyl]-1H-pyrazin-2-one]	6.63	6
O=C(c1cncc(=O)[nH]1)N1CC(c2ccccc2)C2(CCCC2)C1 (single isomer, unassigned) [Example 17b, 6-[4-phenyl-2-azaspiro[4.4]nonane-2-carbonyl]-1H-pyrazin-2-one]	<4.52	<4.52
N#Cc1ccc(C2CN(C(=O)c3cncc(=O)[nH]3)CC23CCC3)cc1 (single isomer, unassigned) [Example 20a, 4-[6-(6-oxo-1H-pyrazine-2-carbonyl)-6-azaspiro[3.4]octan-8-yl]benzonitrile]	4.64	<4.52
N#Cc1ccc(C2CN(C(=O)c3cncc(=O)[nH]3)CC23CCC3)cc1 (single isomer, unassigned) [Example 20b, 4-[6-(6-oxo-1H-pyrazine-2-carbonyl)-6-azaspiro[3.4]octan-8-yl]benzonitrile]	<4.52	<4.52
O=C(c1nccc(=O)[nH]1)N1CC(c2ccccc2)C2(CCC2)C1 (single isomer, unassigned) [Example 21a, 2-[8-phenyl-6-azaspiro[3.4]octane-6-carbonyl]-3H-pyrimidin-4-one]	6.98	5.94
O=C(c1nccc(=O)[nH]1)N1CC(c2ccccc2)C2(CCC2)C1 (single isomer, unassigned) [Example 21b, 2-[8-phenyl-6-azaspiro[3.4]octane-6-carbonyl]-3H-pyrimidin-4-one]	<4.52	<4.52

Further lines, results first:

mPTP Rat brain pIC50 (mPTP [1])	mPTP Rat liver pIC50* (mPTP [2])	Structure (SMILES)
7.22	6.17	O=C(c1cc(O)no1)N1CC(c2ccccc2)C2(CCC2)C1 (single isomer, unassigned) [Example 23a, (3-hydroxyisoxazol-5-yl)(8-phenyl-6-azaspiro[3.4]octan-6-yl)methanone]
<4.52	<4.52	O=C(c1cc(O)no1)N1CC(c2ccccc2)C2(CCC2)C1 (single isomer, unassigned) [Example 23b, (3-hydroxyisoxazol-5-yl)(8-phenyl-6-azaspiro[3.4]octan-6-yl)methanone]
6.88	6.33	O=C(c1nccc(=O)[nH]1)N1CC(c2ccccc2)C2(CC(F)C2)C1 (single isomer, unassigned) [Example 25a, 2-(2-fluoro-8-phenyl-6-azaspiro[3.4]octane-6-carbonyl)pyrimidin-4(3H)-one]
5.57	<4.52	O=C(c1nccc(=O)[nH]1)N1CC(c2ccccc2)C2(CC(F)C2)C1 (single isomer, unassigned) [Example 25b, 2-(2-fluoro-8-phenyl-6-azaspiro[3.4]octane-6-carbonyl)pyrimidin-4(3H)-one]
6.54	5.68	O=C(c1nccc(=O)[nH]1)N1CC(c2ccccc2)C2(CC(F)C2)C1 (single isomer, unassigned) [Example 25c, 2-(2-fluoro-8-phenyl-6-azaspiro[3.4]octane-6-carbonyl)pyrimidin-4(3H)-one]
<4.52	<4.52	O=C(c1nccc(=O)[nH]1)N1CC(c2ccccc2)C2(CC(F)C2)C1 (single isomer, unassigned) [Example 25d, 2-(2-fluoro-8-phenyl-6-azaspiro[3.4]octane-6-carbonyl)pyrimidin-4(3H)-one]
4.96	4.88	O=C(c1cccc(=O)[nH]1)N1CC(c2ccccc2)C2(CCC2)C1 (single isomer, unassigned) [Example 26a, 6-(8-phenyl-6-azaspiro[3.4]octane-6-carbonyl)pyridin-2(1H)-one]
<4.52	<4.52	O=C(c1cccc(=O)[nH]1)N1CC(c2ccccc2)C2(CCC2)C1 (single isomer, unassigned) [Example 26b, 6-(8-phenyl-6-azaspiro[3.4]octane-6-carbonyl)pyridin-2(1H)-one]
6.34	6.11	O=C(c1ccnc(=O)[nH]1)N1CC(c2ccccc2)C2(CCC2)C1 (single isomer, unassigned) [Example 27a, 6-(8-phenyl-6-azaspiro[3.4]octane-6-carbonyl)pyrimidin-2(1H)-one]
<4.52	<4.52	O=C(c1ccnc(=O)[nH]1)N1CC(c2ccccc2)C2(CCC2)C1 (single isomer, unassigned) [Example 27b, 6-(8-phenyl-6-azaspiro[3.4]octane-6-carbonyl)pyrimidin-2(1H)-one]
5.69	5.17	COc1ccc(C2CN(C(=O)c3cncc(=O)[nH]3)CC23CCC3)cc1 (single isomer, unassigned) [Example 28a, 6-(8-(4-methoxyphenyl)-6-azaspiro[3.4]octane-6-carbonyl)pyrazin-2(1H)-one]
<4.52	<4.52	COc1ccc(C2CN(C(=O)c3cncc(=O)[nH]3)CC23CCC3)cc1 (single isomer, unassigned) [Example 28b, 6-(8-(4-methoxyphenyl)-6-azaspiro[3.4]octane-6-carbonyl)pyrazin-2(1H)-one]
6.2	4.59	O=C(c1cncc(=O)[nH]1)N1CC(c2ccc(Br)cc2)C2(CCC2)C1 (single isomer, unassigned) [Example 29a, 6-(8-(4-bromophenyl)-6-azaspiro[3.4]octane-6-carbonyl)pyrazin-2(1H)-one]
<4.52	<4.52	O=C(c1cncc(=O)[nH]1)N1CC(c2ccc(Br)cc2)C2(CCC2)C1 (single isomer, unassigned) [Example 29b, 6-(8-(4-bromophenyl)-6-azaspiro[3.4]octane-6-carbonyl)pyrazin-2(1H)-one]
